Experimental data published in patent US8975234B2, “Anti-bacterial infection, inflammation, and leukemia composition and use thereof” (priority 2011, dated 2015).
≈ marks a conversion by molar mass, not a printed value. Where two headings read alike, the source gives them in different places.

How the values were obtained:
[1] = system: MSSA (Methicillin-susceptible Staphylococcus aureus); test: Minimum inhibitory concentration (broth microdilution) and FIC index; format: cell-based
Method: (§1) A serial of twofold dilution of the tested antibiotics (oxacillin, erythromycin, ampicillin, kanamycin, levofoxacin, vancomycin and doxycycline) was perform by Broth microdilution method to a final concentration of 2-512 μg/mL. The bacterial overnight culture was collected and re-suspended in the Muller-Hilton (M-H) broth. An aliquot of cell suspension (OD600=0.1) was prepared. The bacterial suspensions were plated in 96-well plate and incubated with test antibiotics at 37° C. in a 5% CO2 incubator (Table 1 to Table 4).
(§2) The […], […] and antagonism between two drugs was evaluated by the following formula:
(§3) [formula] The criteria of fractional inhibitory concentration index: […]

MRSA 18271 = test: as above; format: cell-based, Staphylococcus aureus
Method: as §1, §2, §3

MRSA 18631 = test: as above; format: cell-based, Staphylococcus aureus
Method: as §1, §2, §3

MRSA 19615 = test: as above; format: cell-based, Staphylococcus aureus
Method: as §1, §2, §3

[2] = system: standard MRSA strain (ATCC 33591); test: Minimum inhibitory concentration (broth microdilution); format: cell-based, Staphylococcus aureus; settings: Table 1; for MIC: Staphylococcus aureus
Method: as §1

DPPH scavenging assay = settings: 100 μM; −FeCl2
Method: Test reagents, natural extracts and Vitamin C (ascorbic acid) were dissolved in methanol to make a stock solution 10×. Vitamin C was used as the positive control. 120 μM DPPH solution was prepared. Taken 20 μL of stock reagents, natural extracts and Vitamin C on a 96-well microplate, and methanol was added to make up to the total volume of 100 μL. Control was 100 μL methanol. Each sample was mixed with 100 μL DPPH solution and incubated in the dark for 40 minutes. DPPH level of each well was evaluated by detecting the optical density of each well at 517 nm and the results were shown in Table 5.

K-562 cells = test: ROS test (DCF-DA); format: cell-based, human; settings: pre-treatment 10 μM before Tellimagrandin II 50 μM for 2 hours
Method: A radical specific fluorescent dye, 2′,7′-dichlorofluorescein (DCF-DA) was used to detect H2O2/NO-based radicals or O2— in cells respectively.
A total of 3 mL cell solution at the concentration of 1×10^6 K-562 cells per mL was cultured with 6 cm cell culture plates in an incubator supplied with 5% CO2 at 37° C. for 30 minutes so that cells could adapt to the environment. Tellimagrandin II solutions of different concentrations were added by order so that the final concentrations are 0, 30, 40 and 50 μM respectively. The solution was placed in incubator with 5% CO2 at 37° C. for 2 hours before being centrifuged at 3,500 rpm at 4° C. for 5 minutes and then being rinsed by PBS once. 2′,7′-dichlorofluorescein (DCF-DA) was added before the solution was put into dark incubator for 45 minutes and then rinsed by PBS once again. Finally, 1 mL PBS was used to resuspend the cells before BD FACScan was used to detect the fluorescent signal.

[3] = Staphylococcus aureus, MSSA, Table 1, MSSA, read-out: Minimum inhibitory concentration
[4] = Staphylococcus aureus, MSSA, Table 2, Non-drug resistant Staphylococcus aureus, with TG II 30 μg/mL, read-out: MIC
[5] = Staphylococcus aureus, MSSA, Table 2, Non-drug resistant Staphylococcus aureus, without TG II, read-out: MIC
[6] = Staphylococcus aureus, MSSA, Table 3, MSSA, Tellimagrandin II (40 μg/ml) −, read-out: MIC
[7] = Table 2, Non-drug resistant Staphylococcus aureus, with TG II 30 μg/mL
[8] = Table 3, MSSA, Tellimagrandin II (40 μg/ml) +
[9] = Staphylococcus aureus, MRSA, Table 1, MRSA 18271, read-out: Minimum inhibitory concentration
[10] = Staphylococcus aureus, MRSA, Table 2, 18271, with TG II 30 μg/mL, read-out: MIC
[11] = Staphylococcus aureus, MRSA, Table 2, 18271, with TG II 40 μg/mL, read-out: MIC
[12] = Staphylococcus aureus, MRSA, Table 2, 18271, without TG II, read-out: MIC
[13] = Staphylococcus aureus, MRSA, Table 3, 18271, Tellimagrandin II (40 μg/ml) −, read-out: MIC
[14] = Table 2, 18271, with TG II 30 μg/mL
[15] = Table 2, 18271, with TG II 40 μg/mL
[16] = Table 3, 18271, Tellimagrandin II (40 μg/ml) +
[17] = Staphylococcus aureus, MRSA, Table 1, MRSA 18631, read-out: Minimum inhibitory concentration
[18] = Staphylococcus aureus, MRSA, Table 2, 18631, with TG II 30 μg/mL, read-out: MIC
[19] = Staphylococcus aureus, MRSA, Table 2, 18631, with TG II 40 μg/mL, read-out: MIC
[20] = Staphylococcus aureus, MRSA, Table 2, 18631, without TG II, read-out: MIC
[21] = Staphylococcus aureus, MRSA, Table 3, 18631, Tellimagrandin II (40 μg/ml) −, read-out: MIC
[22] = Table 2, 18631, with TG II 30 μg/mL
[23] = Table 2, 18631, with TG II 40 μg/mL
[24] = Table 3, 18631, Tellimagrandin II (40 μg/ml) +
[25] = Staphylococcus aureus, MRSA, Table 1, MRSA 19615, read-out: Minimum inhibitory concentration
[26] = Staphylococcus aureus, MRSA, Table 2, 19615, with TG II 30 μg/mL, read-out: MIC
[27] = Staphylococcus aureus, MRSA, Table 2, 19615, with TG II 40 μg/mL, read-out: MIC
[28] = Staphylococcus aureus, MRSA, Table 2, 19615, without TG II, read-out: MIC
[29] = Staphylococcus aureus, MRSA, Table 3, 19615, Tellimagrandin II (40 μg/ml) −, read-out: MIC
[30] = Table 2, 19615, with TG II 30 μg/mL
[31] = Table 2, 19615, with TG II 40 μg/mL
[32] = Table 3, 19615, Tellimagrandin II (40 μg/ml) +

| Compound | MIC [1, 3] [µg/mL] | MIC [1, 6] [µg/mL] | FIC [1, 8] | MIC [1, 8] [µg/mL] | MIC (MRSA 18271; [9]) [µg/mL] | MIC (MRSA 18271; [13]) [µg/mL] | FIC (MRSA 18271; [16]) | MIC (MRSA 18271; [16]) [µg/mL] | MIC (MRSA 18631; [17]) [µg/mL] | MIC (MRSA 18631; [21]) [µg/mL] | FIC (MRSA 18631; [24]) | MIC (MRSA 18631; [24]) [µg/mL] | MIC (MRSA 19615; [25]) [µg/mL] | MIC (MRSA 19615; [29]) [µg/mL] | FIC (MRSA 19615; [32]) | MIC (MRSA 19615; [32]) [µg/mL] | MIC [2] [µg/mL] | further results |
| --- | --- | --- | --- | --- | --- | --- | --- | --- | --- | --- | --- | --- | --- | --- | --- | --- | --- | --- |
| C[C@H]1COc2c(N3CCN(C)CC3)c(F)cc3c(=O)c(C(=O)O)cn1c23 [Levofloxacin] | > 512 | 512 | 1.00 | 512 | > 512 | 512 | 1.00 | 512 | > 512 | 256 | 2.00 | 512 | > 512 | 512 | 1.00 | 512 | 32 (≈ 88.6 µM) | MIC [1, 4]: 8 µg/mL; MIC [1, 5]: > 512 µg/mL; FIC [1, 7]: 0.016; MIC (MRSA 18271; [10]): 512 µg/mL; MIC (MRSA 18271; [11]): 512 µg/mL; MIC (MRSA 18271; [12]): > 512 µg/mL; FIC (MRSA 18271; [14]): 1; FIC (MRSA 18271; [15]): 1; MIC (MRSA 18631; [18]): 512 µg/mL; MIC (MRSA 18631; [19]): 512 µg/mL; MIC (MRSA 18631; [20]): > 512 µg/mL; FIC (MRSA 18631; [22]): 1; FIC (MRSA 18631; [23]): 1; MIC (MRSA 19615; [26]): 512 µg/mL; MIC (MRSA 19615; [27]): 512 µg/mL; MIC (MRSA 19615; [28]): > 512 µg/mL; FIC (MRSA 19615; [30]): 1; FIC (MRSA 19615; [31]): 1 |
| CC[C@H]1OC(=O)[C@H](C)[C@@H](O[C@H]2C[C@@](C)(OC)[C@@H](O)[C@H](C)O2)[C@H](C)[C@@H](O[C@@H]2O[C@H](C)C[C@H](N(C)C)[C@H]2O)[C@](C)(O)C[C@@H](C)C(=O)[C@H](C)[C@@H](O)[C@]1(C)O [Erythromycin] | 128 | – | 0.50 | 64 | > 512 | – | 1.00 | 512 | > 512 | – | 1.00 | 512 | > 512 | – | 1.00 | 512 | > 512 | MIC (MRSA 18271; Staphylococcus aureus, MRSA): 512 µg/mL; MIC (MRSA 18631; Staphylococcus aureus, MRSA): 512 µg/mL; MIC (MRSA 19615; Staphylococcus aureus, MRSA): 512 µg/mL |
| NC[C@H]1O[C@H](O[C@H]2[C@H](O)[C@@H](O[C@H]3O[C@H](CO)[C@@H](O)[C@H](N)[C@H]3O)[C@H](N)C[C@@H]2N)[C@H](O)[C@@H](O)[C@@H]1O [Kanamycin] | > 512 | 512 | – | – | > 512 | 512 | – | – | > 512 | 512 | – | – | > 512 | 512 | – | – | > 512 | – |
| C[C@H]1c2cccc(O)c2C(=O)C2=C(O)[C@]3(O)C(=O)C(C(N)=O)=C(O)[C@@H](N(C)C)[C@@H]3[C@@H](O)[C@@H]21 [Doxycycline] | 128 | 128 | 0.063 | 8 | > 512 | 512 | 0.004 | 2 | 256 | 256 | 0.008 | 2 | > 512 | 512 | 0.016 | 8 | 64 (≈ 144 µM) | MIC [1, 4]: 16 µg/mL; MIC ([1]; Staphylococcus aureus, MSSA, Table 2, Non-drug resistant Staphylococcus aureus, with TG II 40 μg/mL, read-out: MIC): 8 µg/mL; MIC [1, 5]: 128 µg/mL; FIC [1, 7]: 0.125; FIC ([1]; Table 2, Non-drug resistant Staphylococcus aureus, with TG II 40 μg/mL): 0.016; MIC (MRSA 18271; [10]): 2 µg/mL; MIC (MRSA 18271; [11]): 2 µg/mL; MIC (MRSA 18271; [12]): 512 µg/mL; FIC (MRSA 18271; [14]): 0.004; FIC (MRSA 18271; [15]): 0.004; MIC (MRSA 18631; [18]): 2 µg/mL; MIC (MRSA 18631; [19]): 2 µg/mL; MIC (MRSA 18631; [20]): 256 µg/mL; FIC (MRSA 18631; [22]): 0.008; FIC (MRSA 18631; [23]): 0.008; MIC (MRSA 19615; [26]): 16 µg/mL; MIC (MRSA 19615; [27]): 8 µg/mL; MIC (MRSA 19615; [28]): 512 µg/mL; FIC (MRSA 19615; [30]): 0.031; FIC (MRSA 19615; [31]): 0.016 |
| O=C1O[C@H]([C@@H](O)CO)C(O)=C1O [Vitamin C, ascorbic acid] | – | – | – | – | – | – | – | – | – | – | – | – | – | – | – | – | – | DPPH free-radical scavenging activity (DPPH scavenging assay): 81.09 ± 0.5% |
| CC(=O)N[C@@H](CS)C(=O)O [N-acetyl-L-cysteine] | – | – | – | – | – | – | – | – | – | – | – | – | – | – | – | – | – | ROS production (K-562 cells): inhibition of ROS production |
| Penicillin | – | – | – | – | – | – | – | – | – | – | – | – | – | – | – | – | – | Minimum inhibitory concentration ([1]; Table 1, MSSA): >512 µg/mL; Minimum inhibitory concentration (MRSA 18271; Table 1, MRSA 18271): >512 µg/mL; Minimum inhibitory concentration (MRSA 18631; Table 1, MRSA 18631): >512 µg/mL; Minimum inhibitory concentration (MRSA 19615; Table 1, MRSA 19615): >512 µg/mL; Minimum inhibitory concentration [2]: >512 µg/mL |
